Assays:
ZIKV = assay: Effect of inhibitors of IFN signaling on ZIKV replication in HepG2 cells, plaque assay; format: cell-based, Zika virus; details: HepG2 pre-treated 24 h, plaque assay 24 h p.i.; FIG. 22
Description: HepG2 cells were pre-treated with DMSO (vehicle), JAK I Inhibitor, TSA, or NaF for 24 h and infected with ZIKV. Data represent the mean+s.e.m. from three independent experiments. P values were determined by a one-way ANOVA followed by Tukey's post-hoc test.
I3S (Indoxyl 3-sulfate, Sigma, used at 50-500 μM as indicated for each experiment), CH223191 (Tocris, used at 2-30 μM), Sodium fluoride (Sigma, 1 mM), Trichostatin A (Sigma, 100 nM), JAK I Inhibitor (Santa Cruz Biotechnology, 1 μM). HP163 was the generous gift of Hercules Pharmaceuticals, BV, (Galileiweg 8, 2333 BD, The Netherlands). CB7993113 has been described previously^80. HP163, is a monoalkylated amide of CB7993113 optimally formulated in a 5% tween, 45% PEG, 50% saline mixture. […] The structural formulas of the compounds used in this study are reproduced below.

[1] = system: ZIKV (Puerto Rico strain, PRVABC59); assay: Flow cytometry quantification of HepG2 cells positive for Flavivirus antigen after ZIKV infection; format: cell-based, Zika virus; details: HepG2, ZIKV moi=1, 48 h; FIG. 7C
Description: FIGS. 7A-7K: AHR signaling boosts ZIKV replication in vitro. Flow cytometry quantification of HepG2 cells positive for Flavivirus antigen. HepG2 cells were pre-treated with different concentrations of I3S, CH223191 or DMSO (vehicle) and infected with ZIKV (moi=1) for 48 h. Plots shown are representative of one experiment. Bar graphs (FIG. 7C) represent the mean+s.e.m. of Flavivirus antigen positive cells from at least three independent experiments. P values were determined by a one-way ANOVA followed by Tukey's post-hoc test.
Stock solutions of I3S and CH223191 were prepared in DMSO, aliquoted and stored according to manufacturer's instructions. For CH223191, cells were pre-treated for 90 minutes and then used for further studies. For I3S, cells were pre-treated overnight.
Cells were fixed and permeabilized using Cytofix/Cytoperm (BD Biosciences). Secondary antibody for flow cytometry was phycoerythrin (PE) goat anti-mouse IgG (BD Biosciences) at a concentration of 1:200. Cells were analyzed on a Guava easyCyte flow cytometer and data was processed using FlowJo software.

AHR [2] = assay: AHR modulation in NPCs, qPCR of AHR, CYP1A1, IDO1 and TDO2; format: cell-based, human; details: at the concentrations tested; NPCs 24 h; FIGS. 10A-10D
Description: FIGS. 10A-10D: AHR modulation in NPCs. NPCs were treated with I3S or a combination of I3S and CH223191. 24 h after treatment, NPCs were harvested for RNA extraction followed by qPCR analysis of AHR (FIG. 10A), CYP1A1 (FIG. 10B), IDO1 (FIG. 100) and TDO2 (FIG. 10D). Data represent the mean+s.e.m. from three independent experiments. P values were determined by Student's t-test.
RNA was extracted using the RNAeasy kit (Qiagen). cDNA was synthesized using the High-Capacity cDNA Reverse Transcription kit (Applied Biosystems) and qPCR was performed using TaqMan Fast Advanced Master Mix (Applied Biosystems). Gene expression was normalized to GAPDH. Primers and probes (Applied Biosystems) were: GAPDH Hs02786624_g1, IFNB1 Hs01077958_s1, AHR Hs00169233_m1, PML Hs00971694_m1, CYP1A1 Hs01054796_g1, IFITM1 Hs00705137_s1, CYP1B1 Hs02382916_s1, CXCL10 Hs00171042_m1, IDO1 Hs00984148_m1, IDO2 Hs01589373_m1, IFITM Hs00705137_s1, TDO Hs00194611_m1. Primers and probes for the specific detection of Zika virus RNA were utilized as previously described^81, 82. For viral load determination in vivo, brains and spleens from pups were macerated on trizol (Invitrogen) for RNA extraction. RNA pellets were resuspended in RNase-free water and quantified by spectrophotometry (NanoDrop—Thermo Scientific) and stored at −80° C. […] Quantification was compared with threshold cycle (Ct) value with a ZIKV plasmid standard curve.

AHR [3] = assay: AHR modulation in A549 cells, qPCR of AHR and CYP1A1; format: cell-based; details: 24 h; FIG. 61
Description: FIGS. 61A and 61B: AHR modulation by small molecules in A549 cells. A549 cells were treated with the indicated concentrations of I3S (FIG. 61A) or CH223191 (FIG. 61B) for 24 h. Then, cells were harvested for RNA extraction and qPCR analysis of AHR and CYP1A1.

[4] = system: DENV-1, DENV-2, DENV-3, DENV-4; assay: DENV plaque assay of supernatants of A549 cells; format: cell-based, dengue virus; details: A549 pretreated 24 h, moi=0.1; FIG. 62
Description: FIG. 62: AHR activation boosts DENV replication. A549 cells were pretreated with the indicated concentrations of I3S for 24 h and infected with DENV-2 (moi=0.1). 48 h p.i. supernatants were harvested for plaque assay.
FIGS. 63A-63D: AHR modulation affects DENV replication. Infectious virus particles in the supernatants of A549 cells pre-treated with CH2213191 and infected with DENV-1 (FIG. 63A), DENV-2 (FIG. 63B), DENV-3 (FIG. 63C) or DENV-4 (FIG. 63D) (moi=0.1). At 24 h p.i. supernatants were harvested for plaque assay.

Cell cultures = assay: Cell viability by MTT assay; format: cell-based; details: at the concentrations tested; FIGS. 9A-9B
Description: FIGS. 9A and 9B: Toxicity of I3S and CH223191. Cell viability after treatment for 24 h with different concentrations of I3S (FIG. 9A) and CH223191 (FIG. 9B) evaluated by MTT assay.
Cell cultures grown in 96-well plates were exposed for 48 h to serial two-fold compound dilutions, three wells for each concentration and viability was measured with 3-(4,5-dimethylthiazol-2-yl)-2,5-diphenyl tetrazolium bromide (MTT, Sigma-Aldrich).

[F-].[Na+] [NaF, Sodium fluoride]
ZIKV replication in presence of drugs that block IFN-I signaling (ZIKV): increase

O=S(=O)(O)Oc1c[nH]c2ccccc12 [I3S, Indoxyl 3-sulfate]
percentage of HepG2 cells expressing viral antigen [1]: increased
AHR inhibition / activation (AHR [2]): activation
AHR activation in A549 cells (AHR [3]): activated
yield of the four DENV serotypes [4]: increased
cytotoxic effects (Cell cultures): no cytotoxic effects were detected

CC(/C=C/C(=O)NO)=C\[C@@H](C)C(=O)c1ccc(N(C)C)cc1 [trichostatin A]
ZIKV replication in presence of drugs that block IFN-I signaling (ZIKV): increase

JAK inhibitor I
ZIKV replication in presence of drugs that block IFN-I signaling (ZIKV): increase

Reference: patent US20220323402A1, “TREATMENT, AMELIORATION OR PREVENTION OF A VIRAL INFECTION” (priority 2019, published 2022)
